In data set [1] the test system is entire mitochondrial protein extract. The data set is described as follows: Biotin-switch analysis of mitochondrial protein S-nitrosation. Format: biochemical, rat. To be noted: for S-nitrosation of mitochondrial protein, comparison of NO* donors: entire mitochondrial protein extract. How it is done:
(§1) Rat heart mitochondria were isolated using differential centrifugation (Tompkins, et al. (2005) Biochim. Biophys. Acta PMID: 16278076). Protein was determined by the Folin-phenol method (Lowry, et al. (1951) J. Bio. Chem. 193:265-75) against a standard curve constructed using bovine serum albumin. Mitochondrial incubations and all subsequent steps were performed in the dark. One mg of mitochondrial protein was suspended in 1 mL of mitochondrial respiration buffer (Tompkins, et al. (2005) supra) containing respiratory substrates glutamate (5 mM), malate (2.5 mM) and succinate (5 mM). […] Samples were centrifuged (5 minutes, 14,000×g), and supernatants removed. The pellets were then resuspended in 1 mL of respiration buffer, and centrifuged again. Pellets were frozen in liquid N2 for subsequent analysis. For ONOO^− treatments, 4 μL of 25 mM ONOO^− stock (100 μM final concentration) was added the cap of the reaction tube, the cap quickly closed and the tube shaken immediately. The process was then repeated twice at 30 second intervals, for a total of 3 additions. Mitochondria were then pelleted, washed, and frozen as for S-nitrosoglutathione samples. Complex I activity was assayed as the rotenone-sensitive oxidation of NADH, at 340 nm in the presence of coenzyme Q1 (Borutaite, et al. (2000) supra). Complex IV was assayed by monitoring the cyanide-sensitive first-order oxidation of reduced cytochrome c, at 550 nm according to established methods (Cleeter, et al. (1994) supra).
For biotin-switch analysis, intact mitochondrial pellets (1 mg protein solubilized in extraction buffer) or chromatography column fractions were analyzed in accordance with known methods (Jaffrey & Snyder (2001) supra). Samples were separated in duplicate on non-reducing SDS-PAGE gels; half the gel was stained with COOMASSIE® blue, and the other half blotted and probed with streptavidin-HRP and ECL™ detection (GE biosciences) Blots and stained gels were aligned, and S-nitrosated proteins excised, trypsinized, and identified by peptide mass fingerprinting. Mass spectra (MALDI-TOF) were analyzed using the MASCOT™ algorithm available on the world-wide web at matrixscience.com.

The test system of data set [2] is isolated adult rat cardiomyocytes. The data set is described as follows: Cardiomyocyte model of ischemia-reperfusion injury, cell viability by Trypan blue exclusion. Format: cell-based. To be noted: 10 μM or 20 μM; 1 hour ischemia, 30 minutes reoxygenation. Here is the method:
Isolated adult rat cardiomyocytes were subjected to 1 hour ischemia (anoxic, glucose free medium, pH 6.5) followed by 30 minutes reoxygenation (labeled “HR”). Cell viability was assayed by Trypan blue exclusion. […] All data are means±SEM, N>3.
Adult rat cardiomyocytes were prepared by collagenase perfusion according to standard methods (Dai, et al. (2001) supra), yielding ˜4×10^6 cells per heart, >80% rod-shaped and viable. Incubations were in a shaking water bath at 37° C., each utilizing 5×10^5 cells in 5 mL of the KH buffers described below. For the control, cells were incubated for 2 hours in oxygenated KH buffer (95/5 O2/CO2). For ischemia-reperfusion treatment, cells were subjected to 30 minutes in oxygenated KH buffer, 1 hour in “ischemic” KH buffer (95/5 N2/CO2, pH 6.5, no glucose), and 30 minutes in oxygenated KH buffer. For the ischemia-reperfusion injury and test compound group of cells, ischemia-reperfusion injury was carried out as described above with test compound present during the 30 minute equilibration prior to ischemia-reperfusion and absent during ischemia. […] At the end of each protocol, cell viability was assayed (Trypan blue), and mitochondrial function determined (measurement of ΔΨm with the fluorescent probe TMRE, respiration with an O2 electrode, and S-nitrosothiol content by chemiluminescence and biotin-switch.

The conditions of data set [3]: radioactive tracer studies in whole animals; cited from earlier work.
Another data set deals with T1, mitochondrial complex I (Rattus norvegicus, UniProt Q66HF1).
T1 construct: Rat heart mitochondria were isolated using differential centrifugation; from tissue; host or cells: rat heart mitochondria (male Sprague-Dawley rats)
T1 sequence (Q66HF1 24-727, one chain of several): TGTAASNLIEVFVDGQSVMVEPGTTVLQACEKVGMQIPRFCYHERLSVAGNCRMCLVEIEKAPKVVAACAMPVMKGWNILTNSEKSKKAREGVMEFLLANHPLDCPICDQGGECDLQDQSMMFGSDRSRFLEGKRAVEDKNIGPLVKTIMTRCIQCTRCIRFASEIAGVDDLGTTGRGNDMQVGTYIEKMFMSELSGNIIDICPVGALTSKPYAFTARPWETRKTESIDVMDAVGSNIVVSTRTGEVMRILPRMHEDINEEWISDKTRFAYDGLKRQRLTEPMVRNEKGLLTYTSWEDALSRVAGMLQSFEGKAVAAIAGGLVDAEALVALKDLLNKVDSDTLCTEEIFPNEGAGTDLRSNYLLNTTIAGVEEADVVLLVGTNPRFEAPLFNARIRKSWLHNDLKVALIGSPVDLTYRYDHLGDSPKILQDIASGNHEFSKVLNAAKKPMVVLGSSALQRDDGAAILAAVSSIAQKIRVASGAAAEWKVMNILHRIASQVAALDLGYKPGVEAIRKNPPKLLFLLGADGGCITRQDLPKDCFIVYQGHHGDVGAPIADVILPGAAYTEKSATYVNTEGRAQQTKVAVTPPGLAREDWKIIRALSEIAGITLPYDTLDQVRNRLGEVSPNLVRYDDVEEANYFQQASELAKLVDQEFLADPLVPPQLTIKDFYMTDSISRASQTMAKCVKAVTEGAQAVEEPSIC
The data set is described as follows: Complex I activity (rotenone-sensitive NADH/Co-Q1 oxidation/reduction) in treated mitochondria. It counts as biochemical. The conditions noted are these: S-nitrosoglutathione treatment of mitochondria; exposure to light. An excerpt: Assuming heart mitochondria contain ˜50 pmol complex I per mg protein (Schagger & Pfeiffer (2001) J. Biol. Chem. 276:37861-37867), it was observed that S-nitrosation plateaud at a ˜7:1 mol/mol ratio (i.e., 7 mols S-nitrosothiol per mol complex I), while maximum complex I inhibition was ˜20-25%. This apparent mis-match between the stoichiometry of S-nitrosation (7:1) and the degree of inhibition (25%) may reflect S-nitrosation of complex I on multiple subunits. Alternatively, since the spectrophotometric complex I activity assay was performed at 340 nm, close to the absorption maxima of S-nitrosothiols (335 nm), S-nitrosothiols within complex I may have been destroyed during the assay, leading to underestimation of inhibition by S-nitrosation.
Rat heart mitochondria were isolated using differential centrifugation (Tompkins, et al. (2005) Biochim. Biophys. Acta PMID: 16278076). Protein was determined by the Folin-phenol method (Lowry, et al. (1951) J. Bio. Chem. 193:265-75) against a standard curve constructed using bovine serum albumin. Mitochondrial incubations and all subsequent steps were performed in the dark. One mg of mitochondrial protein was suspended in 1 mL of mitochondrial respiration buffer (Tompkins, et al. (2005) supra) containing respiratory substrates glutamate (5 mM), malate (2.5 mM) and succinate (5 mM). […]

For a further data set, the system named is isolated mitochondria. The data set is described as follows: Chemiluminescent NO analysis of total S-nitrosothiol in isolated mitochondria. Format: biochemical, rat. How it is done: At concentrations above 250 μM, secondary reactions such as free S-nitrosothiol or NO2^− formation were observed.
as §1
Chemiluminescent analysis of S-nitrosothiol content was performed on samples originating from blue-native gels, intact mitochondria and SUPEROSE™ 6 chromatography fractions, according to known methodologies (Yang, et al. (2003) Free Radic. Res. 37:1-10). […] Each sample was run in duplicate and quantified using a standard curve created with known concentrations of NaNO2.

For the molecule `CC(SN=O)C(=O)NCC(=O)O` (stereo not drawn) [S-nitroso-2-mercaptopropylglycine], the “S-nitrosation of mitochondrial proteins compared with S-nitrosoglutathione” value in data set [1] (same concentrations, 10-100 μM) is “much greater degree of S-nitrosation of mitochondrial proteins than did S-nitrosoglutathione”. The “protection of cardiomyocyte viability from ischemia-reperfusion injury” value in data set [2] was “significant protection of cardiomyocytes from ischemia-reperfusion injury”.

As to `CC(S)C(=O)NCC(=O)O` (stereo not drawn) [2-Mercaptopropionylglycine], the “cell entry and mitochondrial accumulation” value in data set [3] is “readily enters cells and accumulates in mitochondria”.

As for `NCCN(CCN)/[N+]([O-])=N/O` [DETA-NONOate], in data set [1], the “S-nitrosation of mitochondrial protein, comparison of NO* donors” value (“S-nitrosation … of NO* donors” below) is on record as “S-nitrosoglutathione resulted in far more S-nitrosation than DETA-NONOate”.

As to `N[C@@H](CCC(=O)N[C@@H](CSN=O)C(=O)NCC(=O)O)C(=O)O` [S-nitrosoglutathione], the “complex I inhibition and its reversibility” value at mitochondrial complex I was “complex I inhibition that was reversible by exposure of mitochondria to light”. For the same molecule, the “concentration at which formation of protein bound S-nitrosothiol saturates” value in data set [1] (biotin-switch and chemiluminescent data together) was around 250 µM. Moreover, in data set [1] (dose response over the range 50-250 μM), the “concentration at which plateau of mitochondrial protein S-nitrosation is reached” value was around 200 µM. The “S-nitrosation … of NO* donors” value in data set [1] is listed as “far more S-nitrosation than DETA-NONOate or ONOO^−”. For the same molecule, the “concentration at which total S-nitrosothiol (free plus protein-bound) approaches saturation” value in the data set on isolated mitochondria (10 μM to 1 mM) was around 300 µM. The total S-nitrosothiol in the data set with isolated mitochondria (100 μM treatment) was ~1700 pmol/mg mitochondrial protein. Further, in the data set with isolated mitochondria (isolated mitochondria), the “concentrations at which secondary reactions such as free S-nitrosothiol or NO2− formation were observed” value is listed as “above 250 μM”.

As to `O=NOO` [ONOO^−, peroxynitrite], in data set [1], the “S-nitrosation … of NO* donors” value is on record as “S-nitrosoglutathione resulted in far more S-nitrosation than DETA-NONOate or ONOO^−”.

These data come from US20090149540A1, “Compositions and Methods for Attenuating Mitochondria-Mediated Cell Injury” (priority 2005, published 2009).
